Results from patent US10426736B2, “Delivering functional nucleic acids to mammalian cells via bacterially-derived, intact minicells” (EnGenelC Molecular Delivery Pty. Ltd., priority 2004, dated 2019).

Key:
Caco-2 cell xenograft [1] = test: Dosing schedule time-course, Caco-2 xenograft, irinotecan (Example 6); assay type: in vivo, nude mice; details: free drug, ~2.4×10^5 ng/dose, intravenous
Protocol: Allowing sufficient time for efficient delivery of shRNA to the tumor cells before the receptor-targeted, drug-packaged minicells are administered improves the results. A time-course experiment was performed, wherein ^EGFRminicellsshRNA-MDR-1 were administered intravenously in nude mice carrying Caco-2 cell xenograft. In separate groups (n=11 mice per group), mice were given ^EGFRminicellsIrino either at 96 hr (G3), 120 hr (G4) or 144 hr (G5) after the ^EGFRminicellsshRNA-MDR-1 treatment. G1 and G2 were tumor only and free irinotecan (˜2.4×10^5 ng/dose) controls. The minicells were administered at 5×10^8 per dose and each dose carried ˜80 ng of irinotecan packaged in minicells, which is a 3,000-fold lower dose than that administered as free drug.

[2] = tested on: Human colon cancer cell line Caco-2; test: MTT cell proliferation assay, reversal of drug resistance in-vitro; details: single treatment; 72 hrs; free drugs 25 μM; MTT read at 490 nm
Protocol: Caco-2 cells were seeded at 3×10^6 cells/flask in Minimum Essential Medium with 10% cosmic calf serum and incubated for 3 hours at 37° C., 5% CO2.
The cells were treated with (a) ^EGFRminicellsshRNA-MDR-1, and (b) ^EGFRminicellsshRNA-nonsense. […] Minicells were added at a concentration of 10^10 per flask and all flasks were incubated for 72 hrs. The cells from each treatment were trypsinised and seeded at 1×10^4 cells/ml/well in 24-well plates and were incubated for 3 hrs at 37° C., 5% CO2. The control untreated cells were then incubated with (6 wells/treatment) (a) free irinotecan (25 μM), (b) free 5-FU (25 μM), (c) ^EGFRminicellsIrino, and (d) ^EGFRminicells5-FU.
The ^EGFRminicellsshRNA-MDR-1 treated Caco-2 cells were incubated with (6 wells/treatment) (a) ^CMV minicells5-FU (non-specifically targeted since the bispecific antibody is targeted to a surface protein on cytomegalovirus), (b) free irinotecan, (c) free 5-FU EGFR, (d) ^EGFRminicellsIrino, and (e) ^EGFRminicells5-FU. […]
All cells were incubated for a further 72 hrs followed by the colorimetric MTT cell proliferation assay (Cory et al., 1991) using the CellTiter 96 AQueous One Solution Cell Proliferation Assay (Promega Corp., Madison, Wis., USA), according to the manufacturer's instructions. The colorimetric measurements were read at 490 nm.

Caco-2 cell xenograft [3] = test: Dosing schedule time-course, Caco-2 xenograft, 5-FU (Example 7); assay type: in vivo, nude mice; details: free drug, 1×10^6 ng/dose, intravenous
Protocol: The experiment described in example 6 was repeated with the same controls and experimental groups except that G2 received free 5-FU (1×10^6 ng/dose) and in G3, G4 and G5, the second treatment was carried out with ^EGFRminicells5-FU. Minicells were administered at 1×10^9 per dose and each dose carried ˜80 ng 5-FU, i.e., ˜12,500-fold lower than free drug administration in G2 mice.

[4] = tested on: human breast adenocarcinoma cell line, MDA-MB-468; test: Doxorubicin sensitivity of MDA-MB-468 cell line; assay type: cell-based; details: parental MDA-MB-468

SMILES: CCc1c2c(nc3ccc(OC(=O)N4CCC(N5CCCCC5)CC4)cc13)-c1cc3c(c(=O)n1C2)COC(=O)[C@]3(O)CC [irinotecan]
- effect on tumor growth (FIG. 5) (Caco-2 cell xenograft [1]): no effect
- resistance of Caco-2 cells to treatment (cell viability, FIG. 1) [2]: highly resistant

SMILES: O=c1[nH]cc(F)c(=O)[nH]1 [5-FU, 5-fluorouracil]
- effect on tumor growth (FIG. 6) (Caco-2 cell xenograft [3]): no effect

SMILES: COc1cccc2c1C(=O)c1c(O)c3c(c(O)c1C2=O)C[C@@](O)(C(=O)CO)C[C@@H]3O[C@H]1C[C@H](N)[C@H](O)[C@H](C)O1 [doxorubicin]
- sensitivity of cell line to drug [4]: highly sensitive
